The source of these data is ChEMBL document CHEMBL1201862, “PubChem BioAssay data set” (2004).

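Values below derive from 48-hour exposures of cells grown in 96-well plates, with endpoints linearly interpolated between the two concentrations bracketing the appropriate inhibition level. GI50 is the concentration that inhibits growth by half.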 Calls of active or inactive are those of the source. Cut-off read from the data, not from the text of the source: active = GI50 up to about 1.1 µM and inactive = higher.

Test in all cases: NCI anticancer screen, dose series, 48 h
Test [1] concerns SK-MEL-5.
Test [2] deals with A549.
The test system of test [3] is HCT-15.
The test system of test [4] is LOX IMVI.
Test [5] concerns UO-31.
In test [6] the test system is RXF 393.
Test [7] has as its system Malme-3M.
Test [8] relates to UACC-62.
For test [9], the system named is HOP-92.
Test [10] deals with OVCAR-8.
Test [11] concerns SF-539.
Test [12] has as its system MOLT-4.
The subject of test [13] is SF-295.
Test [14] deals with EKVX.
Test [15] concerns HT-29.
In test [16] the test system is SN12C.
Test [17] deals with UACC-257.
The subject of test [18] is MDA-MB-435.
In test [19] the test system is HL-60.
Test [20] has as its system SK-MEL-2.

Turning to `COc1ccc(Nc2nc3ccccc3nc2C(=O)O)cc1OC`, the GI50 in [1] was 28.5 µM (inactive); in [2], > 100 µM (inactive); in test [3], 50.7 µM; in [4], 99.8 µM (inactive); in [5], 29.6 µM (inactive); in test [6] it was 74.1 µM (inactive). The GI50 in [7] was 34 µM (inactive); in test [8], 60.8 µM (inactive); in test [9], 27.5 µM (inactive); in test [10] it was > 100 µM (inactive); in [11], > 100 µM (inactive); in test [12], 65 µM (inactive). For the same molecule, the GI50 in [13] is 33.2 µM (inactive); in [14], 61.7 µM (inactive); in test [15], > 100 µM (inactive); in test [16] it was 48.1 µM (inactive); in [17], 98.2 µM (inactive); in test [18], > 100 µM (inactive). In addition, in test [19], the GI50 was 88.1 µM (inactive).
With `O=C1NC2(CN3CCC2CC3)C(=O)N1CN(Cc1ccccc1)c1ccccc1` (centres undefined), the GI50 in [1] was 85.7 µM (inactive); in [2], 81.1 µM (inactive); in test [3], 41.2 µM; in test [4], 35.2 µM (inactive); in test [20] it was > 100 µM (inactive); in test [5] it was 25.1 µM (inactive). In addition, the GI50 in test [6] is 27 µM (inactive); in test [8] it was > 100 µM (inactive); in test [9], > 100 µM (inactive); in test [10], 57 µM (inactive); in test [11] it was 93.8 µM (inactive); in test [12], 68.7 µM (inactive). Further, the GI50 in test [13] is > 100 µM (inactive); in test [14], > 100 µM (inactive); in [15], 56.6 µM (inactive); in [16], 71 µM (inactive); in [17], 46 µM (inactive); in test [18] it was > 100 µM (inactive). Besides, the GI50 in test [19] is 21.1 µM (inactive).
For the molecule `COc1ccc2c(c1O)[C@@]13CCCC=C1[C@@H](C2)[N+](C)(C)CC3`, the GI50 in test [1] is 91.4 µM (inactive); in [2], > 100 µM (inactive); in [3], over 100 µM; in test [4], > 100 µM (inactive); in test [20] it was > 100 µM (inactive); in test [5] it was > 100 µM (inactive). Also, the GI50 in test [6], in [7], in test [8], in test [9], in test [10] and in [13] was > 100 µM (inactive) in each case. The GI50 was > 100 µM (inactive) in test [14]; > 100 µM (inactive) in [15]; > 100 µM (inactive) in test [16]; 79.1 µM (inactive) in [17]; > 100 µM (inactive) in test [18]; 56.4 µM (inactive) in [19].
Take `O=c1c2ccccc2nc(Cc2nc(-c3ccc(Cl)cc3)cs2)n1-c1ccc(Cl)cc1`: the GI50 in test [1] is 34.4 µM (inactive); in [2], 50.6 µM (inactive); in [3], 31.5 µM; in [4], 50.2 µM (inactive); in test [20], 28.1 µM (inactive); in test [5], > 100 µM (inactive). In addition, the GI50 in [6] is > 100 µM (inactive); in test [7] it was > 100 µM (inactive); in test [8], 5.78 µM (inactive); in [9], 9.64 µM (inactive); in [10] it was 82.6 µM (inactive); in test [12], 30.9 µM (inactive). For the same molecule, the GI50 in test [13] is 44.4 µM (inactive); in test [14], 64.6 µM (inactive); in test [15], 85.7 µM (inactive); in [17], 67.6 µM (inactive); in test [18], 46.3 µM (inactive); in test [19], 66.2 µM (inactive).
Regarding `N#CCCN(CCC#N)c1ccc(/C=C2\N=C(c3ccccc3)N(c3ccc(F)cc3)C2=O)cc1`, the GI50 was > 100 µM (inactive) in test [1]; > 100 µM (inactive) in test [2]; over 100 µM in test [3]; > 100 µM (inactive) in [4]; > 100 µM (inactive) in [20]; > 100 µM (inactive) in [5]. Besides, the GI50 in [6], in test [7], in [8], in [9], in test [10] and in test [11] was > 100 µM (inactive) each time. Besides, the GI50 in test [12], in test [13], in test [14], in test [15], in [16] and in test [17] was > 100 µM (inactive) each time. Further, the GI50 in test [18] is > 100 µM (inactive).
Regarding `C[C@@H]1CC(=O)C[C@@H]2CC[C@H]3[C@@H]4CC[C@H](OC(=O)c5cccc6cc7ccccc7nc56)[C@H]4CC[C@@H]3[C@H]21`, the GI50 in [1] was 13.2 µM (inactive); in test [2], 25.1 µM (inactive); in [3] it was 14.2 µM; in test [4] it was 15.6 µM (inactive); in test [20], 17.1 µM (inactive); in test [5] it was 16.9 µM (inactive). Moreover, the GI50 in [6] was 18.1 µM (inactive); in test [7], 8.71 µM (inactive); in test [8], 13.3 µM (inactive); in test [9] it was 23.3 µM (inactive); in [10] it was 16 µM (inactive); in [11], 16.7 µM (inactive). Moreover, the GI50 in [12] was 3.48 µM (inactive); in [13], 27.8 µM (inactive); in test [14] it was 16.7 µM (inactive); in test [15] it was 15.8 µM (inactive); in test [16], 16.6 µM (inactive); in [17] it was 14.3 µM (inactive). The GI50 in test [18] is 15.8 µM (inactive).
For `COc1cc(C2SC(=N)Nc3c2c(C)nn3C(=O)c2ccccc2O)ccc1O` (centres undefined), the GI50 in test [1] is 2.75 µM (inactive); in test [2], 1.36 µM (inactive); in [3] it was over 2.31 µM; in test [4], 1.47 µM (inactive); in test [20], > 2.86 µM (inactive); in test [5], 9.31 µM (inactive). For the same molecule, the GI50 in [6] was 1.52 µM (inactive); in test [7], 0.513 µM (active); in test [8], 1.15 µM (inactive); in test [9], > 10 µM (inactive); in test [10] it was > 2.33 µM (inactive); in [12], > 2.28 µM (inactive). The GI50 is 1.28 µM (inactive) in [13]; > 2.63 µM (inactive) in test [14]; > 6.38 µM (inactive) in test [15]; > 2.64 µM (inactive) in test [16]; 0.94 µM (active) in test [17]; 1.54 µM (inactive) in test [18]. Further, the GI50 in [19] was > 2.32 µM (inactive).
Take `COc1cc(CC2CC(c3ccc4c(c3)OCO4)OC2=O)cc(OC)c1OC` (centres undefined): the GI50 is 43.9 µM (inactive) in test [1]; > 100 µM (inactive) in [2]; over 100 µM in test [3]; > 100 µM (inactive) in test [4]; 19.4 µM (inactive) in test [5]; > 100 µM (inactive) in test [6]. Besides, the GI50 was 61.1 µM (inactive) in test [7]; 52.5 µM (inactive) in test [8]; 13.6 µM (inactive) in test [9]; > 100 µM (inactive) in test [10]; > 100 µM (inactive) in test [11]; 83 µM (inactive) in test [12]. In addition, the GI50 was > 100 µM (inactive) in test [13]; 65.9 µM (inactive) in test [14]; > 100 µM (inactive) in test [15]; > 100 µM (inactive) in [16]; 77.4 µM (inactive) in [17]; > 100 µM (inactive) in test [18]. Besides, in [19], the GI50 is > 100 µM (inactive).
For `COc1ccc2nc3cc(Cl)ccc3c(NCCNCCCNC(=O)c3cc(-c4ccccc4)nc4ccccc34)c2c1`, the GI50 in test [1] was 67 µM (inactive); in test [2], > 100 µM (inactive); in test [3] it was over 100 µM; in test [4], 82.6 µM (inactive); in test [5], > 100 µM (inactive); in [6], > 100 µM (inactive). Besides, the GI50 in test [7] was 97.5 µM (inactive); in test [8] it was > 100 µM (inactive); in test [9] it was > 100 µM (inactive); in test [10], > 100 µM (inactive); in test [11], > 100 µM (inactive); in [12], > 100 µM (inactive). Besides, the GI50 in [13] is > 100 µM (inactive); in test [14], > 100 µM (inactive); in test [15] it was 22.6 µM (inactive); in [16], > 100 µM (inactive); in test [17], > 100 µM (inactive); in [18], 30.1 µM (inactive). Besides, the GI50 in test [19] is 31.3 µM (inactive).
Regarding `O=C1/C(=C/c2ccc(Cl)cc2)N=C(c2ccccc2)N1c1nc2ccc(Sc3ccccc3)cc2[nH]1`, the GI50 in test [1] is 15.5 µM (inactive); in test [2], 36.1 µM (inactive); in test [3], 29.2 µM; in [4], 23.9 µM (inactive); in test [20], 15.6 µM (inactive); in test [5], 34.8 µM (inactive). The GI50 in test [6] was 26.3 µM (inactive); in test [7], 23.4 µM (inactive); in test [8], 14 µM (inactive); in test [9], 45.9 µM (inactive); in test [10], 30.1 µM (inactive); in [12], 25.3 µM (inactive). In addition, the GI50 in [13] was 25.9 µM (inactive); in test [14], 36.3 µM (inactive); in test [15] it was 19.1 µM (inactive); in test [16], 29 µM (inactive); in test [17], 22.3 µM (inactive); in [18], 10.2 µM (inactive). Besides, the GI50 in test [19] was 15.8 µM (inactive).
As for `COC(=O)[C@]12C3=C(O)C(=O)C[C@H]1OC[C@H]2C=CC3`, the GI50 in [1] was > 100 µM (inactive); in test [2], > 100 µM (inactive); in test [3], over 100 µM; in [4] it was > 100 µM (inactive); in test [20], > 100 µM (inactive); in test [5], > 100 µM (inactive). The GI50 in test [6], in test [7], in test [8], in test [9], in test [10] and in test [13] was > 100 µM (inactive) throughout. Further, the GI50 in test [14], in [16], in [17] and in [18] was > 100 µM (inactive) in each case.
